Calls of active or inactive are those of the source. No cut-off for these calls is given here. Positions of bridges follow the written chain, without caps; N, C: chain ends. Non-standard residues stand in square brackets, D forms with d. Residues, ends and D or L forms follow the SMILES beside them. Nle = CCCC[C@H](N)C(=O)O
How the values were obtained:
Mus musculus [1] = experiment: Anorexigenic activity in C57BL/6J mouse assessed as reduction in ghrelin-induced food intake at 0.6 nmol/g body weight, sc measured after 2 hrs post dose; assay type: functional, organism-based
Mus musculus [2] = experiment: Effect on food intake in C57BL/6J mouse at 0.6 nmol/g body weight, sc measured after 2 hrs post dose; assay type: ADME, organism-based; settings: in vivo
[3] = molecular target: T1, Growth hormone secretagogue receptor type 1 (Homo sapiens, UniProt Q92847); experiment: Competitive antagonist activity at human SNAP-tagged GHSR expressed in HEK293T cells assessed as reduction in ghrelin-induced calcium production at 1 uM after 15 mins by Fluo 4-AM dye-based fluorescence assay; assay type: functional, cell-based; settings: read-out: pA2 (converted)
[4] = molecular target: T1, Growth hormone secretagogue receptor type 1; experiment: Competitive antagonist activity at SNAP-tagged human GHSR expressed in HEK293T cells assessed as reduction in ghrelin-induced inositol phosphate production at 1 uM after 30 mins by HTRF assay; assay type: functional, cell-based; settings: read-out: pA2 (converted)
[5] = molecular target: T1, Growth hormone secretagogue receptor type 1; experiment: Inverse agonist activity at SNAP-tagged human GHSR expressed in HEK293T cells assessed as reduction in inositol phosphate production after 30 mins by HTRF assay; assay type: functional, cell-based
[6] = molecular target: T1, Growth hormone secretagogue receptor type 1; experiment: Displacement of […] from SNAP-tagged human GHSR expressed in HEK293T cells after 3 hrs by HTRF assay; assay type: cell-based
[7] = molecular target: Growth hormone secretagogue receptor type 1 (Rattus norvegicus) (UniProt O08725); experiment: Inverse agonist activity at GHSR in Wistar rat pancreatic islets assessed as inhibition of ghrelin-induced insulinostatic action after 1 hr in presence of glucose
Chain of Growth hormone secretagogue receptor type 1 (Rattus norvegicus) (O08725 whole entry, looked up): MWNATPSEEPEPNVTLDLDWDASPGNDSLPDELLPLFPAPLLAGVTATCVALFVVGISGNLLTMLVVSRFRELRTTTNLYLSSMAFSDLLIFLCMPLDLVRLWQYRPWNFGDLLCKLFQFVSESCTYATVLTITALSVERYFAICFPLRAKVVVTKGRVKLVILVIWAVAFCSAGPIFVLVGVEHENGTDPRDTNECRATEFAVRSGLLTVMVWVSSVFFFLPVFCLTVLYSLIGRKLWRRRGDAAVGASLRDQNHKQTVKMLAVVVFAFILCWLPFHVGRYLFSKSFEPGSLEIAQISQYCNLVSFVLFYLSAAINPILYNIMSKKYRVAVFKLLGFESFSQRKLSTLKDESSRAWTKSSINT

T1 sequence (Q92847 whole entry): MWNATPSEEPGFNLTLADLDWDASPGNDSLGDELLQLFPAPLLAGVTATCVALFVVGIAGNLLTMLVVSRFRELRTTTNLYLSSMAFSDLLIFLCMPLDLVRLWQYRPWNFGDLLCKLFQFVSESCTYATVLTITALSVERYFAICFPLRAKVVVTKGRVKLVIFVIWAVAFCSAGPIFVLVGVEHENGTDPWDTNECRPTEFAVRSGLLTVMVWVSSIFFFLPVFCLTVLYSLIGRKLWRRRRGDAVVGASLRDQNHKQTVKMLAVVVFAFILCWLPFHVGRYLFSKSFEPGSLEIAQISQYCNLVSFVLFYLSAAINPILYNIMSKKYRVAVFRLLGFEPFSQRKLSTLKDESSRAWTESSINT

SMILES	Kb [3]	Kb [4]	EC50 [5]	Ki [6]	Activity [7]	Activity (Mus musculus [1])	Activity (Mus musculus [2])
CC(C)C[C@H](NC(=O)[C@H](CO)NC(=O)[C@@H]1CSSC[C@@H]2NC(=O)[C@H](CCC(=O)O)NC(=O)[C@H](CO)NC(=O)[C@@H](CC(=O)O)NC(=O)[C@@H](CC(=O)O)NC(=O)[C@@H](CCCNC(=N)N)NC(=O)[C@H](NC(=O)[C@@H](CO)NC(=O)[C@@H](C)N)CSSC[C@H](NC(=O)[C@H](CC(C)C)NC(=O)[C@H](CCCNC(=N)N)NC(=O)[C@H]([C@@H](C)O)NC(=O)[C@H]([C@@H](C)O)NC2=O)C(=O)N[C@@H](CCCNC(=N)N)C(=O)N[C@@H](CCCCN)C(=O)N[C@@H](CCCNC(=N)N)C(=O)N[C@@H](CCCNC(=N)N)C(=O)N1)C(=O)N[C@@H](CO)C(=O)N[C@H](C(=O)N[C@@H](C)C(=O)N[C@@H](CCC(N)=O)C(=O)N[C@@H](CCC(=O)O)C(=O)O)C(C)C						inactive	
CCCC[C@H](N)C(=O)N[C@H](C(=O)N1CCC[C@H]1C(=O)N[C@@H](Cc1ccccc1)C(=O)N[C@@H](Cc1c[nH]c2ccccc12)C(=O)N[C@@H](CCCNC(=N)N)C(=O)NCC(=O)N[C@H](C(=O)N[C@@H](CO)C(=O)N[C@@H](CC(C)C)C(=O)N[C@@H](CCCNC(=N)N)C(=O)N1CCC[C@H]1C(=O)N[C@H](C(=O)NCC(=O)N[C@H](C)C(=O)N[C@H](CO)C(=O)N[C@@H]1CSSC[C@@H]2NC(=O)[C@H](CC(C)C)NC(=O)[C@H](CCCNC(=N)N)NC(=O)[C@H]([C@@H](C)O)NC(=O)[C@H]([C@@H](C)O)NC(=O)[C@H](CSSC[C@@H](C(=O)N[C@@H](CO)C(=O)N[C@@H](CC(C)C)C(=O)N[C@@H](CO)C(=O)N[C@H](C(=O)N[C@@H](C)C(=O)N[C@@H](CCC(N)=O)C(=O)N[C@@H](CCC(=O)O)C(=O)O)C(C)C)NC(=O)[C@H](CCCNC(=N)N)NC(=O)[C@H](CCCNC(=N)N)NC(=O)[C@H](CCCCN)NC(=O)[C@H](CCCNC(=N)N)NC2=O)NC(=O)[C@H](CCC(=O)O)NC(=O)[C@H](CO)NC(=O)[C@@H](CC(=O)O)NC(=O)[C@@H](CC(=O)O)NC(=O)[C@@H](CCCNC(=N)N)NC1=O)[C@@H](C)CC)C(C)C)[C@@H](C)O						Active	
CC[C@H](C)[C@@H]1NC(=O)[C@@H]2CSSC[C@@H](C(=O)N[C@@H](CO)C(=O)N[C@@H](CC(C)C)C(=O)N[C@@H](CO)C(=O)N[C@H](C(=O)N[C@@H](C)C(=O)N[C@@H](CCC(N)=O)C(=O)N[C@@H](CCC(=O)O)C(=O)O)C(C)C)NC(=O)[C@H](CCCNC(=N)N)NC(=O)[C@H](CCCNC(=N)N)NC(=O)[C@H](CCCCN)NC(=O)[C@H](CCCNC(=N)N)NC(=O)[C@H](CSSC[C@H](NC(=O)[C@H](CO)NC(=O)[C@H](C)N)C(=O)N[C@@H](CCCNC(=N)N)C(=O)N[C@@H](CC(=O)O)C(=O)N[C@@H](CC(=O)O)C(=O)N[C@@H](CO)C(=O)N[C@@H](CCC(=O)O)C(=O)N2)NC(=O)[C@H](CC(C)C)NC(=O)[C@H](CCCNC(=N)N)NC(=O)[C@H]([C@@H](C)O)NC1=O (H-ASCRDDSECITRLCRKRRCSLSVAQE-OH; disulfide 3-14, 9-19)							Non-Toxic
CCCC[C@H](N)C(=O)N[C@H](C(=O)N1CCC[C@H]1C(=O)N[C@@H](Cc1ccccc1)C(=O)N[C@@H](Cc1c[nH]c2ccccc12)C(=O)N[C@@H](CCCNC(=N)N)C(N)=O)[C@@H](C)O (H-[Nle]TPFWR-NH2)			6630 nM	55 nM			

More lines, in order of falling EC50 [5], values ahead:

Kb [3]	Kb [4]	EC50 [5]	Ki [6]	Activity [7]	SMILES	Activity (Mus musculus [1])	Activity (Mus musculus [2])
		368 nM	6.45 nM		CCCC[C@H](N)C(=O)N[C@H](C(=O)N1CCC[C@H]1C(=O)N[C@@H](Cc1ccccc1)C(=O)N[C@@H](Cc1c[nH]c2ccccc12)C(=O)N[C@@H](CCCNC(=N)N)C(=O)NCC(=O)N[C@H](C(N)=O)C(C)C)[C@@H](C)O (H-[Nle]TPFWRGV-NH2)		
		134 nM	3.4 nM		CCCC[C@H](N)C(=O)N[C@H](C(=O)N1CCC[C@H]1C(=O)N[C@@H](Cc1ccccc1)C(=O)N[C@@H](Cc1c[nH]c2ccccc12)C(=O)N[C@@H](CCCNC(=N)N)C(=O)NCC(=O)N[C@H](C(=O)N[C@@H](CO)C(=O)N[C@@H](CC(C)C)C(N)=O)C(C)C)[C@@H](C)O (H-[Nle]TPFWRGVSL-NH2)		
89.1 nM	34.7 nM	76.4 nM	3.66 nM		CCCC[C@H](N)C(=O)N[C@H](C(=O)N1CCC[C@H]1C(=O)N[C@@H](Cc1ccccc1)C(=O)N[C@@H](Cc1c[nH]c2ccccc12)C(=O)N[C@@H](CCCNC(=N)N)C(=O)NCC(=O)N[C@H](C(=O)N[C@@H](CO)C(=O)N[C@@H](CC(C)C)C(=O)N[C@@H](CCCNC(=N)N)C(=O)N1CCC[C@H]1C(=O)N[C@H](C(=O)NCC(=O)O)[C@@H](C)CC)C(C)C)[C@@H](C)O (H-[Nle]TPFWRGVSLRPIG-OH)		
		48 nM	3.05 nM		CCCC[C@H](N)C(=O)N[C@H](C(=O)N1CCC[C@H]1C(=O)N[C@@H](Cc1ccccc1)C(=O)N[C@@H](Cc1c[nH]c2ccccc12)C(=O)N[C@@H](CCCNC(=N)N)C(=O)NCC(=O)N[C@H](C(=O)N[C@@H](CO)C(=O)N[C@@H](CC(C)C)C(=O)N[C@@H](CCCNC(=N)N)C(=O)N1CCC[C@H]1C(=O)N[C@H](C(=O)NCC(N)=O)[C@@H](C)CC)C(C)C)[C@@H](C)O (H-[Nle]TPFWRGVSLRPIG-NH2)		
		46 nM	2.7 nM	Active	CCCC[C@H](N)C(=O)N[C@H](C(=O)N1CCC[C@H]1C(=O)N[C@@H](Cc1ccccc1)C(=O)N[C@@H](Cc1c[nH]c2ccccc12)C(=O)N[C@@H](CCCNC(=N)N)C(=O)NCC(=O)N[C@H](C(=O)N[C@@H](CO)C(=O)N[C@@H](CC(C)C)C(=O)N[C@@H](CCCNC(=N)N)C(=O)N1CCC[C@H]1C(N)=O)C(C)C)[C@@H](C)O (H-[Nle]TPFWRGVSLRP-NH2)	Active	Non-Toxic
10.2 nM	1.48 nM	22.8 nM	1.26 nM		CC[C@H](C)[C@@H]1NC(=O)[C@@H]2CSSC[C@@H](C(=O)N[C@@H](CO)C(=O)N[C@@H](CC(C)C)C(=O)N[C@@H](CO)C(=O)N[C@H](C(=O)N[C@@H](C)C(=O)N[C@@H](CCC(N)=O)C(=O)N[C@@H](CCC(=O)O)C(=O)O)C(C)C)NC(=O)[C@H](CCCNC(=N)N)NC(=O)[C@H](CCCNC(=N)N)NC(=O)[C@H](CCCCN)NC(=O)[C@H](CCCNC(=N)N)NC(=O)[C@H](CSSC[C@H](NC(=O)[C@H](CO)NC(=O)[C@H](C)NC(=O)CNC(=O)[C@@H](NC(=O)[C@@H]3CCCN3C(=O)[C@H](CCCNC(=N)N)NC(=O)[C@H](CC(C)C)NC(=O)[C@H](CO)NC(=O)[C@@H](NC(=O)CNC(=O)[C@H](CCCNC(=N)N)NC(=O)[C@H](Cc3c[nH]c4ccccc34)NC(=O)[C@H](Cc3ccccc3)NC(=O)[C@@H]3CCCN3C(=O)[C@@H](NC(=O)[C@@H](N)CCSC)[C@@H](C)O)C(C)C)[C@@H](C)CC)C(=O)N[C@@H](CCCNC(=N)N)C(=O)N[C@@H](CC(=O)O)C(=O)N[C@@H](CC(=O)O)C(=O)N[C@@H](CO)C(=O)N[C@@H](CCC(=O)O)C(=O)N2)NC(=O)[C@H](CC(C)C)NC(=O)[C@H](CCCNC(=N)N)NC(=O)[C@H]([C@@H](C)O)NC1=O (H-MTPFWRGVSLRPIGASCRDDSECITRLCRKRRCSLSVAQE-OH; disulfide 17-28, 23-33)		Non-Toxic

Reference: ChEMBL document CHEMBL4368902 (J Med Chem, 2019)
